Consider 13 molecules from PubChem BioAssay AID180 (DTP/NCI, 2004).

The assay concerns BDF1 mice, Adenocarcinoma 755 s.c., tumor weight T/C. The experiment in a line: NCI In Vivo Anticancer Drug Screen. Data for tumor model Adenocarcinoma 755 (subcutaneous) in B6D2F1 (BDF1) mice. The settings on record: endpoint: mean tumor weight, higher = larger tumour. In short, it runs like this:
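Readout: T/C, i.e. treated-group measurement over vehicle-control measurement. Endpoint is survival or tumor size in tumor-bearing mice given compound.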

Setting [1] is: dose: 12.5 mg/kg/injection, schedule: Q01DX011 (ip), vehicle: methylcellulose (MC).
Setting [2] is: dose: 25.0 mg/kg/injection, schedule: Q01DX011 (ip), vehicle: methylcellulose (MC).
Setting [3] is: dose: 50.0 mg/kg/injection, schedule: Q01DX011 (ip), vehicle: methylcellulose (MC).

Several values for one entry are separate records, joined by “and”; a condition that tells them apart may be missing. Equal entries are not always repeated.

In the case of `C1CN1P1(N2CC2)=NP(N2CC2)(N2CC2)=NP(N2CC2)(N2CC2)=NP(N2CC2)(N2CC2)=N1`, the T/C (dose: 0.4 mg/kg/injection, schedule: Q01DX011 (ip), vehicle: carboxymethylcellulose (CMC)) is 48 % of control; the T/C (dose: 0.4 mg/kg/injection, schedule: Q02DX011 (ip), vehicle: carboxymethylcellulose (CMC)) is 96 % of control; the T/C (dose: 0.8 mg/kg/injection, schedule: Q01DX011 (ip), vehicle: carboxymethylcellulose (CMC)) was 22 % of control; the T/C (dose: 0.8 mg/kg/injection, schedule: Q02DX011 (ip), vehicle: carboxymethylcellulose (CMC)) is 54 % of control; the T/C (dose: 1.5 mg/kg/injection, schedule: Q01DX011 (ip), vehicle: methylcellulose (MC)) was 45 % of control; the T/C (dose: 1.5 mg/kg/injection, schedule: Q02DX006 (ip), vehicle: carboxymethylcellulose (CMC)) was 50 % of control. The T/C is 6 % of control (dose: 1.6 mg/kg/injection, schedule: Q01DX011 (ip), vehicle: carboxymethylcellulose (CMC)); 31 % of control (dose: 1.6 mg/kg/injection, schedule: Q02DX011 (ip), vehicle: carboxymethylcellulose (CMC)); 13 % of control (dose: 3.0 mg/kg/injection, schedule: Q01DX011 (ip), vehicle: methylcellulose (MC)); 10 % of control (dose: 3.0 mg/kg/injection, schedule: Q02DX006 (ip), vehicle: carboxymethylcellulose (CMC)); 1 % of control (dose: 3.2 mg/kg/injection, schedule: Q02DX011 (ip), vehicle: carboxymethylcellulose (CMC)); 1 % of control (dose: 6.0 mg/kg/injection, schedule: Q02DX006 (ip), vehicle: carboxymethylcellulose (CMC)).

With `CS(=O)(=O)OCCC(=O)NCNC(=O)CCOS(C)(=O)=O`, the T/C (dose: 7.0 mg/kg/injection, schedule: Q01DX011 (ip), vehicle: carboxymethylcellulose (CMC)) was 77 % of control; the T/C under setting [1] was 79 % of control; the T/C (dose: 14.0 mg/kg/injection, schedule: Q01DX011 (ip), vehicle: carboxymethylcellulose (CMC)) was 42 % of control; the T/C under setting [2] was 39 % of control; the T/C (dose: 28.0 mg/kg/injection, schedule: Q01DX011 (ip), vehicle: carboxymethylcellulose (CMC)) is 4 % of control; the T/C (dose: 28.0 mg/kg/injection, schedule: Q01DX011 (ip), vehicle: methylcellulose (MC)) is 5 % of control. The T/C under setting [3] was 3 % of control.

In the case of `CCCCN(C)/N=N/c1nc[nH]c1C(N)=O`, for the setting “dose: 80.0 mg/kg/injection, schedule: Q01DX011 (ip), vehicle: carboxymethylcellulose (CMC)”, the T/C was 4 % of control.

In the case of `O=P(N1CCCCCC1)(N1CC1)N1CC1`, the T/C was 95 % of control (dose: 1.0 mg/kg/injection, schedule: Q01DX011 (ip), vehicle: methylcellulose (MC)); 68 % of control (dose: 2.0 mg/kg/injection, schedule: Q01DX011 (ip), vehicle: methylcellulose (MC)); 48 % of control (dose: 4.0 mg/kg/injection, schedule: Q01DX011 (ip), vehicle: methylcellulose (MC)); 28 % of control (dose: 8.0 mg/kg/injection, schedule: Q01DX011 (ip), vehicle: methylcellulose (MC)).

Turning to `O=C1OC(c2cc(I)c(O)c(I)c2)(c2cc(I)c(O)c(I)c2)c2ccccc21`, the T/C (dose: 0.38 mg/kg/injection, schedule: Q01DX011 (ip), vehicle: carboxymethylcellulose (CMC)) is 107 % of control; the T/C (dose: 0.76 mg/kg/injection, schedule: Q01DX011 (ip), vehicle: carboxymethylcellulose (CMC)) was 68 % of control; the T/C (dose: 1.56 mg/kg/injection, schedule: Q01DX011 (ip), vehicle: carboxymethylcellulose (CMC)) was 68 % of control.

As to `CN(C)CCCN1c2ccccc2Sc2ccc(Cl)cc21`, the T/C by setting is: (dose: 11.25 mg/kg/injection, schedule: Q01DX011 (ip), vehicle: methylcellulose (MC)) 44 % of control; (dose: 11.25 mg/kg/injection, schedule: Q01DX011 (ip), vehicle: saline) 59 % of control; (dose: 22.5 mg/kg/injection, schedule: Q01DX011 (ip), vehicle: methylcellulose (MC)) 28 % of control; (dose: 22.5 mg/kg/injection, schedule: Q01DX011 (ip), vehicle: saline) 47 % of control; (dose: 45.0 mg/kg/injection, schedule: Q01DX011 (ip), vehicle: methylcellulose (MC)) 33 % of control; (dose: 45.0 mg/kg/injection, schedule: Q01DX011 (ip), vehicle: saline) 38 % of control. For the same molecule, for the setting “dose: 90.0 mg/kg/injection, schedule: Q01DX011 (ip), vehicle: methylcellulose (MC)”, the T/C is 25 % of control.

Turning to `c1ccc2nc(-c3cc4ccccc4s3)ccc2c1`, the T/C is 42 % of control (dose: 133.0 mg/kg/injection, schedule: Q01DX011 (ip), vehicle: carboxymethylcellulose (CMC)); 42 % of control (dose: 133.0 mg/kg/injection, schedule: Q01DX011 (ip), vehicle: saline); 53 % of control (dose: 200.0 mg/kg/injection, schedule: Q01DX011 (ip), vehicle: carboxymethylcellulose (CMC)); 39 % of control (dose: 200.0 mg/kg/injection, schedule: Q01DX011 (ip), vehicle: saline); 24 % of control (dose: 300.0 mg/kg/injection, schedule: Q01DX011 (ip), vehicle: carboxymethylcellulose (CMC)); 34 % of control (dose: 300.0 mg/kg/injection, schedule: Q01DX011 (ip), vehicle: saline). Further, for the setting “dose: 450.0 mg/kg/injection, schedule: Q01DX011 (ip), vehicle: saline”, the T/C is 21 % of control.

With `OC1c2cc(Cl)ccc2-c2c(Cl)cc(Cl)cc21` (centres undefined), the T/C was 37 % of control (dose: 50.0 mg/kg/injection, schedule: Q01DX011 (ip), vehicle: other); 41 % of control (dose: 100.0 mg/kg/injection, schedule: Q01DX011 (ip), vehicle: other); 19 % of control (dose: 200.0 mg/kg/injection, schedule: Q01DX011 (ip), vehicle: other); 10 % of control (dose: 400.0 mg/kg/injection, schedule: Q01DX011 (ip), vehicle: other).

Take `CCCCn1cnc2c(SCc3ccc(F)cc3)nc(N)nc21`: the T/C reads like this: (dose: 3.1 mg/kg/injection, schedule: Q01DX011 (ip), vehicle: methylcellulose (MC)) 59 % of control; (dose: 6.25 mg/kg/injection, schedule: Q01DX011 (ip), vehicle: methylcellulose (MC)) 47 % of control; under setting [1], 22 % of control; under setting [2], 10 % of control and 14 % of control; under setting [3], 2 % of control.

On to `C=CC(=O)NCNC(=O)CCBr`, for which the T/C was 62 % of control (dose: 12.5 mg/kg/injection, schedule: Q01DX011 (ip), vehicle: carboxymethylcellulose (CMC)); 34 % of control (dose: 25.0 mg/kg/injection, schedule: Q01DX011 (ip), vehicle: carboxymethylcellulose (CMC)); 1 % of control (dose: 50.0 mg/kg/injection, schedule: Q01DX011 (ip), vehicle: carboxymethylcellulose (CMC)).

For the molecule `CC(=O)[C@@]1(O)CC[C@H]2[C@@H]3C[C@H](C)C4=CC(=O)CC[C@]4(C)[C@H]3[C@@H](O)C[C@@]21C`, the T/C is 70 % of control (dose: 7.0 mg/kg/injection, schedule: Q01DX011 (sc), vehicle: steriod suspending solution); 76 % of control (dose: 8.0 mg/kg/injection, schedule: Q01DX011 (sc), vehicle: steriod suspending solution); 54 % of control (dose: 14.0 mg/kg/injection, schedule: Q01DX011 (sc), vehicle: steriod suspending solution); 76 % of control (dose: 16.0 mg/kg/injection, schedule: Q01DX011 (sc), vehicle: steriod suspending solution); 87 % of control (dose: 450.0 mg/kg/injection, schedule: Q01DX011 (sc), vehicle: steriod suspending solution).

For `CNc1ncnc2c1cnn2C`, the T/C is 65 % of control (dose: 5.0 mg/kg/injection, schedule: Q01DX011 (ip), vehicle: methylcellulose (MC)); 55 % of control (dose: 10.0 mg/kg/injection, schedule: Q01DX011 (ip), vehicle: methylcellulose (MC)); 29 % of control (dose: 20.0 mg/kg/injection, schedule: Q01DX011 (ip), vehicle: methylcellulose (MC)).

As to `CN(Cc1cnc2nc(NCNC(=O)C3=C(O)[C@@]4(O)C(=O)C5=C(O)c6c(O)cccc6[C@@](C)(O)[C@H]5C[C@H]4[C@H](N(C)C)C3=O)nc(N)c2n1)c1ccc(C(=O)NC(CCC(=O)O)C(=O)O)cc1` (some centres undefined), the T/C was 109 % of control (dose: 1.5 mg/kg/injection, schedule: Q01DX011 (ip), vehicle: saline); 103 % of control (dose: 3.0 mg/kg/injection, schedule: Q01DX011 (ip), vehicle: saline); 69 % of control (dose: 6.0 mg/kg/injection, schedule: Q01DX011 (ip), vehicle: saline).

In general, T/C refers to the ratio of treated to control.
